Experimental data as given in ChEMBL document CHEMBL2434831, “Imidazo[4,5-b]pyridine inhibitors of B-Raf kinase” (Bioorg Med Chem Lett, 2013).

Molecular target: T1, Serine/threonine-protein kinase B-raf (Homo sapiens, UniProt P15056, V600E)
Assay: Inhibition of B-Raf V600E mutant in human Malme-3M cells assessed as basal ERK phosphorylation
Type: cell-based
Settings: not given; call rule not given here

T1 sequence (P15056 2-766 V600E limits assumed): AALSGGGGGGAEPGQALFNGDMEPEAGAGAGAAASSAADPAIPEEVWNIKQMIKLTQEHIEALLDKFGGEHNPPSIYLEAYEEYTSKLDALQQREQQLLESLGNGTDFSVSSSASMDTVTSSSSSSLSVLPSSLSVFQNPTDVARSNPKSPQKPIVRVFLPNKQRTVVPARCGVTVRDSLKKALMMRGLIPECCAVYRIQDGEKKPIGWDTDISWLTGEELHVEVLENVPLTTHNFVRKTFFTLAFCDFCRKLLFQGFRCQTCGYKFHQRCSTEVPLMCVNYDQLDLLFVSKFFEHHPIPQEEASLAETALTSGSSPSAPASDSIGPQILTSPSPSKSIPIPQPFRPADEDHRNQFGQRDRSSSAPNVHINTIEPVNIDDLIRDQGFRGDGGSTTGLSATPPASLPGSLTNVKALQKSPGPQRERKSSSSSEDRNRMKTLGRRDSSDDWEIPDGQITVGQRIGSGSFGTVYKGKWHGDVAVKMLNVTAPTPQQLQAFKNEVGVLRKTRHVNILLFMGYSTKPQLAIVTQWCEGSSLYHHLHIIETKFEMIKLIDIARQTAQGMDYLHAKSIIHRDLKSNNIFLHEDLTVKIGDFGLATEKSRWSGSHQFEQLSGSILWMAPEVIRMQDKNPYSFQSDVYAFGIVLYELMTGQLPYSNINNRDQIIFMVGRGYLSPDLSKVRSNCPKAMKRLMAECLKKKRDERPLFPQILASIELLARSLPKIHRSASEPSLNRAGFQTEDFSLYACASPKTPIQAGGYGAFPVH

IC50 | SMILES
0.239 µM | CCCS(=O)(=O)Nc1ccc(F)c(C(=O)Nc2cnc3[nH]c(-c4ccc(C#N)cc4)nc3c2)c1F
1.71 µM | CCCS(=O)(=O)Nc1ccc(F)c(C(=O)Nc2cnc3[nH]c(C)nc3c2)c1F
0.081 µM | CCCS(=O)(=O)Nc1ccc(F)c(C(=O)Nc2cnc3[nH]c(-c4ccc(Cl)c(Cl)c4)nc3c2)c1F
0.089 µM | CCCS(=O)(=O)Nc1ccc(F)c(C(=O)Nc2cnc3[nH]c(-c4ccc(C(F)(F)F)cc4)nc3c2)c1F
1.91 µM | CCCS(=O)(=O)Nc1ccc(F)c(C(=O)Nc2cnc3[nH]c(-c4ccncc4)nc3c2)c1F
1.77 µM | CCCS(=O)(=O)Nc1ccc(F)c(C(=O)Nc2cnc3[nH]c(CC)nc3c2)c1F
0.032 µM | CCCS(=O)(=O)Nc1ccc(F)c(C(=O)Nc2cnc3[nH]c(-c4ccccc4)cc3c2)c1F
0.049 µM | CCCS(=O)(=O)Nc1ccc(F)c(C(=O)Nc2cnc3[nH]c(-c4ccc(C)cc4)nc3c2)c1F
0.132 µM | CCCS(=O)(=O)Nc1ccc(F)c(C(=O)Nc2cnc3[nH]c(-c4ccccc4)nc3c2)c1F
0.068 µM | CCCS(=O)(=O)Nc1ccc(F)c(C(=O)Nc2cnc3[nH]c(-c4cccc(Cl)c4)nc3c2)c1F
> 10 µM | CCCS(=O)(=O)Nc1ccc(F)c(C(=O)Nc2cnc3[nH]c(C4CCCNC4)nc3c2)c1F (stereo unspecified)
0.09 µM | CCCS(=O)(=O)Nc1ccc(F)c(C(=O)Nc2cnc3cc(-c4ccc(Cl)cc4)nn3c2)c1F
0.113 µM | CCCS(=O)(=O)Nc1ccc(F)c(C(=O)Nc2cnc3[nH]c(-c4cccc(C(F)(F)F)c4)nc3c2)c1F
0.137 µM | CCCS(=O)(=O)Nc1ccc(F)c(C(=O)Nc2cnc3[nH]c(-c4ccc(OC)cc4)nc3c2)c1F
1.13 µM | CCCS(=O)(=O)Nc1ccc(F)c(C(=O)Nc2cnc3[nH]c(-c4cccnc4)nc3c2)c1F
3.33 µM | CCCS(=O)(=O)Nc1ccc(F)c(C(=O)Nc2cnc3[nH]c(C4CCC4)nc3c2)c1F
0.086 µM | CCCS(=O)(=O)Nc1ccc(F)c(C(=O)Nc2cnc3[nH]c(-c4ccc(OC(F)(F)F)cc4)nc3c2)c1F
0.728 µM | CCCS(=O)(=O)Nc1ccc(F)c(C(=O)Nc2cnc3[nH]c(-c4ccc(S(C)(=O)=O)cc4)nc3c2)c1F
0.157 µM | CCCS(=O)(=O)Nc1ccc(F)c(C(=O)Nc2cnc3[nH]c(-c4ccc(Cl)cc4)nc3c2)c1F

System: Serine/threonine-protein kinase B-raf (Homo sapiens), P15056 [V600E]
Sequence (P15056 whole entry V600E): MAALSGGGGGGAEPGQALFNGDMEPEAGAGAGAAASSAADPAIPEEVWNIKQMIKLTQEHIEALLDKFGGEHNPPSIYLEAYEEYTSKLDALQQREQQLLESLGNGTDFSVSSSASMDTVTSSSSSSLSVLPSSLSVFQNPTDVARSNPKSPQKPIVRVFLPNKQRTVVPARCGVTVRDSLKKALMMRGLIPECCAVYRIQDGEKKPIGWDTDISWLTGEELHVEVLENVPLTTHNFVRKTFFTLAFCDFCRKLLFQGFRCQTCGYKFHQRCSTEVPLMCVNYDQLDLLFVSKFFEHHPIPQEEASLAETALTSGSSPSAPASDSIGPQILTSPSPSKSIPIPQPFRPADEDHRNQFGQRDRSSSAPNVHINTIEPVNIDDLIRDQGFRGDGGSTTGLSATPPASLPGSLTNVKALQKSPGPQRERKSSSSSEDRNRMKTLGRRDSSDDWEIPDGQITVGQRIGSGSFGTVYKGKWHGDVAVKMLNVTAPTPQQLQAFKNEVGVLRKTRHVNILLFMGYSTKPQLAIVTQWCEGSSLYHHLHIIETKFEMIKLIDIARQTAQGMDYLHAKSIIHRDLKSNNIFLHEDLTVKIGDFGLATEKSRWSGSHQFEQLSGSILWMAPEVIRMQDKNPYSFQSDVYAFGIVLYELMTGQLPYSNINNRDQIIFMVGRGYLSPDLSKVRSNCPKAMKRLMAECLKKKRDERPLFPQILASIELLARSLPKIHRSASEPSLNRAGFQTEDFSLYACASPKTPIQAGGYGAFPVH
Assay: Ratio of IC50 for B-Raf V600E mutant in human Malme-3M cells to IC50 for full length B-Raf V600E mutant (unknown origin)
Type: cell-based
Settings: not given

Ratio IC50 | SMILES
88 | CCCS(=O)(=O)Nc1ccc(F)c(C(=O)Nc2cnc3[nH]c(-c4ccc(C#N)cc4)nc3c2)c1F
43 | CCCS(=O)(=O)Nc1ccc(F)c(C(=O)Nc2cnc3[nH]c(C)nc3c2)c1F
54 | CCCS(=O)(=O)Nc1ccc(F)c(C(=O)Nc2cnc3[nH]c(-c4ccc(Cl)c(Cl)c4)nc3c2)c1F
62 | CCCS(=O)(=O)Nc1ccc(F)c(C(=O)Nc2cnc3[nH]c(-c4ccc(C(F)(F)F)cc4)nc3c2)c1F
596 | CCCS(=O)(=O)Nc1ccc(F)c(C(=O)Nc2cnc3[nH]c(-c4ccncc4)nc3c2)c1F
30 | CCCS(=O)(=O)Nc1ccc(F)c(C(=O)Nc2cnc3[nH]c(CC)nc3c2)c1F
32 | CCCS(=O)(=O)Nc1ccc(F)c(C(=O)Nc2cnc3[nH]c(-c4ccccc4)cc3c2)c1F
38 | CCCS(=O)(=O)Nc1ccc(F)c(C(=O)Nc2cnc3[nH]c(-c4ccc(C)cc4)nc3c2)c1F
62 | CCCS(=O)(=O)Nc1ccc(F)c(C(=O)Nc2cnc3[nH]c(-c4cccc(Cl)c4)nc3c2)c1F
> 60 | CCCS(=O)(=O)Nc1ccc(F)c(C(=O)Nc2cnc3[nH]c(C4CCCNC4)nc3c2)c1F (stereo unspecified)
11 | CCCS(=O)(=O)Nc1ccc(F)c(C(=O)Nc2cnc3cc(-c4ccc(Cl)cc4)nn3c2)c1F
112 | CCCS(=O)(=O)Nc1ccc(F)c(C(=O)Nc2cnc3[nH]c(-c4cccc(C(F)(F)F)c4)nc3c2)c1F
125 | CCCS(=O)(=O)Nc1ccc(F)c(C(=O)Nc2cnc3[nH]c(-c4ccc(OC)cc4)nc3c2)c1F
375 | CCCS(=O)(=O)Nc1ccc(F)c(C(=O)Nc2cnc3[nH]c(-c4cccnc4)nc3c2)c1F
107 | CCCS(=O)(=O)Nc1ccc(F)c(C(=O)Nc2cnc3[nH]c(C4CCC4)nc3c2)c1F
34 | CCCS(=O)(=O)Nc1ccc(F)c(C(=O)Nc2cnc3[nH]c(-c4ccc(OC(F)(F)F)cc4)nc3c2)c1F
527 | CCCS(=O)(=O)Nc1ccc(F)c(C(=O)Nc2cnc3[nH]c(-c4ccc(S(C)(=O)=O)cc4)nc3c2)c1F
71 | CCCS(=O)(=O)Nc1ccc(F)c(C(=O)Nc2cnc3[nH]c(-c4ccc(Cl)cc4)nc3c2)c1F

Molecular target: T1, Serine/threonine-protein kinase B-raf
Assay: Inhibition of full length B-Raf V600E mutant (unknown origin)
Settings: not given

IC50 | SMILES
0.0027 µM | CCCS(=O)(=O)Nc1ccc(F)c(C(=O)Nc2cnc3[nH]c(-c4ccc(C#N)cc4)nc3c2)c1F
0.04 µM | CCCS(=O)(=O)Nc1ccc(F)c(C(=O)Nc2cnc3[nH]c(C)nc3c2)c1F
0.0015 µM | CCCS(=O)(=O)Nc1ccc(F)c(C(=O)Nc2cnc3[nH]c(-c4ccc(Cl)c(Cl)c4)nc3c2)c1F
0.0014 µM | CCCS(=O)(=O)Nc1ccc(F)c(C(=O)Nc2cnc3[nH]c(-c4ccc(C(F)(F)F)cc4)nc3c2)c1F
0.0032 µM | CCCS(=O)(=O)Nc1ccc(F)c(C(=O)Nc2cnc3[nH]c(-c4ccncc4)nc3c2)c1F
0.059 µM | CCCS(=O)(=O)Nc1ccc(F)c(C(=O)Nc2cnc3[nH]c(CC)nc3c2)c1F
0.001 µM | CCCS(=O)(=O)Nc1ccc(F)c(C(=O)Nc2cnc3[nH]c(-c4ccccc4)cc3c2)c1F
0.0013 µM | CCCS(=O)(=O)Nc1ccc(F)c(C(=O)Nc2cnc3[nH]c(-c4ccc(C)cc4)nc3c2)c1F
0.0016 µM | CCCS(=O)(=O)Nc1ccc(F)c(C(=O)Nc2cnc3[nH]c(-c4ccccc4)nc3c2)c1F
0.0011 µM | CCCS(=O)(=O)Nc1ccc(F)c(C(=O)Nc2cnc3[nH]c(-c4cccc(Cl)c4)nc3c2)c1F
0.167 µM | CCCS(=O)(=O)Nc1ccc(F)c(C(=O)Nc2cnc3[nH]c(C4CCCNC4)nc3c2)c1F (stereo unspecified)
0.0082 µM | CCCS(=O)(=O)Nc1ccc(F)c(C(=O)Nc2cnc3cc(-c4ccc(Cl)cc4)nn3c2)c1F
0.001 µM | CCCS(=O)(=O)Nc1ccc(F)c(C(=O)Nc2cnc3[nH]c(-c4cccc(C(F)(F)F)c4)nc3c2)c1F
0.0011 µM | CCCS(=O)(=O)Nc1ccc(F)c(C(=O)Nc2cnc3[nH]c(-c4ccc(OC)cc4)nc3c2)c1F
0.003 µM | CCCS(=O)(=O)Nc1ccc(F)c(C(=O)Nc2cnc3[nH]c(-c4cccnc4)nc3c2)c1F
0.031 µM | CCCS(=O)(=O)Nc1ccc(F)c(C(=O)Nc2cnc3[nH]c(C4CCC4)nc3c2)c1F
0.0025 µM | CCCS(=O)(=O)Nc1ccc(F)c(C(=O)Nc2cnc3[nH]c(-c4ccc(OC(F)(F)F)cc4)nc3c2)c1F
0.0014 µM | CCCS(=O)(=O)Nc1ccc(F)c(C(=O)Nc2cnc3[nH]c(-c4ccc(S(C)(=O)=O)cc4)nc3c2)c1F
0.0022 µM | CCCS(=O)(=O)Nc1ccc(F)c(C(=O)Nc2cnc3[nH]c(-c4ccc(Cl)cc4)nc3c2)c1F

System: not listed separately
Assay: Inhibition of cytochrome P450 (unknown origin)
Type: ADME
Settings: human

inhibition (INH) | SMILES
Not Active | CCCS(=O)(=O)Nc1ccc(F)c(C(=O)Nc2cnc3[nH]c(-c4ccc(Cl)c(Cl)c4)nc3c2)c1F

System: not listed separately
Assay: Permeability from apical to basolateral side in human Caco2 cells
Type: ADME, cell-based
Settings: Caco-2, read-out: permeability

Papp A→B | SMILES
20 nm/s | CCCS(=O)(=O)Nc1ccc(F)c(C(=O)Nc2cnc3[nH]c(-c4ccc(Cl)c(Cl)c4)nc3c2)c1F
10 nm/s | CCCS(=O)(=O)Nc1ccc(F)c(C(=O)Nc2cnc3[nH]c(-c4ccc(C(F)(F)F)cc4)nc3c2)c1F
56 nm/s | CCCS(=O)(=O)Nc1ccc(F)c(C(=O)Nc2cnc3[nH]c(-c4ccccc4)cc3c2)c1F
26 nm/s | CCCS(=O)(=O)Nc1ccc(F)c(C(=O)Nc2cnc3[nH]c(-c4ccc(C)cc4)nc3c2)c1F
